Laboratory results: patent US8541002B2, “Vaccine for treatment and prevention of herpes simplex virus infection” (Agenus Inc., priority 2003, dated 2013)
Where no end group is shown, it is not given here.

Test: Turbidity assay for solubility of the peptides
Type: physicochemical
Conditions: solubility of the antigenic peptides in water or Dimethyl Sulfoxide (DMSO)
Description: A number of antigenic peptides of the invention were synthesized by chemical synthesis as described in Section 5.1.1.
A turbidity assay was used to assess the solubility of the peptides. Turbidity assays used either a Varian Cary double-beam spectrophotometer, or a Molecular Devices Spectromax absorbance plate reader (for high throughput experiments). The spectrophotometer assay read every 2 nm between 340 nm and 360 nm, and averaged the values. Samples were analyzed in duplicate using a quartz micro-cuvette that holds about 200 uL. The plate reader assay used a 96-well plate format that read every 4 nm between 340 nm and 360 nm and averaged those values. Samples in this assay were run in triplicate.

Compound	Solubility
SSDVPSVALLLFPNGTVIHLLAFDTLPIATIAPGF [UL22-3]	DMSO
SRLPPHTQPVFSKRVVMFAWSFLVLKPLELVAAGM [UL20-1]	water
CSCC[C@H](NC(=O)[C@H](CC(C)C)NC(=O)[C@H](Cc1ccccc1)NC(=O)CNC(=O)[C@H](CC(C)C)NC(=O)[C@H](CC(N)=O)NC(=O)[C@H](CC(=O)O)NC(=O)[C@H](CCC(=O)O)NC(=O)[C@H](CO)NC(=O)[C@@H](NC(=O)[C@H](C)NC(=O)[C@H](CO)NC(=O)[C@H](Cc1ccccc1)NC(=O)[C@H](CO)NC(=O)[C@H](CC(=O)O)NC(=O)[C@H](Cc1ccc(O)cc1)NC(=O)[C@H](Cc1ccc(O)cc1)NC(=O)[C@H](CO)NC(=O)[C@H](Cc1c[nH]c2ccccc12)NC(=O)[C@@H](N)CCCNC(=N)N)C(C)C)C(=O)N[C@@H](Cc1c[nH]cn1)C(=O)N[C@@H](C)C(=O)N1CCC[C@H]1C(=O)N[C@@H](C)C(=O)N[C@@H](Cc1ccccc1)C(=O)N[C@@H](CCC(=O)O)C(=O)N[C@H](C(=O)N[C@@H](C)C(=O)NCC(=O)N[C@H](C(=O)N[C@@H](Cc1ccc(O)cc1)C(=O)N[C@@H](CC(C)C)C(=O)N[C@@H](CCCNC(=N)N)C(=O)N[C@@H](CC(C)C)C(=O)N[C@H](C(=O)O)C(C)C)[C@@H](C)O)[C@@H](C)O [US06-1]	DMSO
CC(C)C[C@H](NC(=O)[C@H](CCCNC(=N)N)NC(=O)CNC(=O)[C@@H](NC(=O)[C@H](C)NC(=O)[C@H](C)NC(=O)[C@H](CS)NC(=O)[C@H](Cc1ccccc1)NC(=O)[C@@H](NC(=O)[C@H](CCCNC(=N)N)NC(=O)[C@H](CCCCN)NC(=O)[C@H](CC(N)=O)NC(=O)[C@H](Cc1ccccc1)NC(=O)CNC(=O)[C@H](C)NC(=O)[C@@H](NC(=O)[C@H](CCCNC(=N)N)NC(=O)[C@@H]1CCCN1C(=O)[C@@H](NC(=O)[C@H](Cc1c[nH]c2ccccc12)NC(=O)[C@@H]1CCCN1C(=O)[C@H](C)NC(=O)[C@@H](NC(=O)[C@@H]1CCCN1C(=O)[C@@H](N)CO)[C@@H](C)O)[C@@H](C)O)C(C)C)C(C)C)C(C)C)C(=O)N[C@@H](C)C(=O)N[C@@H](C)C(=O)N[C@H](C(=O)N[C@@H](Cc1c[nH]cn1)C(=O)N[C@@H](C)C(=O)N[C@@H](CCCNC(=N)N)C(=O)N[C@@H](CC(C)C)C(=O)N[C@@H](C)C(=O)N[C@@H](C)C(=O)N[C@H](C(=O)O)C(C)C)[C@@H](C)O [UL49-2]	water
ATYLLNYAGRIVSSVFLQYPYTKITRLLCELSVQR [UL53-1]	DMSO
AAGKRGDSGLLRVCAALSIPKPSEAVRPSRIPRAP [US11-2]	water
VSPAHPQTPVGAGSRDLSLKGTPSDGMQPRGADTL [US11-1]	water
VHSRVYNIIQLVLFHNNDQARRAYVARTINHPAIR [UL40-3]	water
VSIIALTELYFILRRGSAPKNAEPAAPRGRSKGWS [UL53-3]	water
DRPPESPGSELYPLNAQALAHLQMLPADHRAFFRT [US10-2]	water
ASSQSKPLATQPPVLALSNAPPRRVSPTRGRRRHT [UL01-3]	water
GPGASPRLYSVVGPLGRQRLIIEELTLETQGMYYW [UL44-1]	water
CC[C@H](C)[C@H](NC(=O)[C@H](CCCCN)NC(=O)[C@@H](N)C(C)C)C(=O)N[C@@H](CCCNC(=N)N)C(=O)N[C@H](C(=O)N[C@@H](CCC(=O)O)C(=O)N[C@@H](CCC(=O)O)C(=O)N[C@@H](CCC(N)=O)C(=O)N[C@@H](C)C(=O)N[C@@H](C)C(=O)N[C@@H](CCCNC(=N)N)C(=O)N[C@@H](CCCNC(=N)N)C(=O)N[C@@H](CC(=O)O)C(=O)N[C@@H](Cc1ccccc1)C(=O)N[C@@H](CC(C)C)C(=O)N[C@H](C(=O)N[C@@H](C)C(=O)N[C@@H](Cc1c[nH]cn1)C(=O)N[C@@H](CCCNC(=N)N)C(=O)N[C@@H](CCCNC(=N)N)C(=O)N[C@@H](Cc1ccc(O)cc1)C(=O)N[C@@H](CC(C)C)C(=O)N[C@@H](CC(=O)O)C(=O)N1CCC[C@H]1C(=O)N[C@@H](C)C(=O)N[C@@H](CC(C)C)C(=O)N[C@@H](CO)C(=O)N[C@@H](CCC(=O)O)C(=O)N[C@@H](CCCNC(=N)N)C(=O)N[C@@H](CC(C)C)C(=O)N[C@@H](CC(=O)O)C(=O)N[C@@H](C)C(=O)N[C@@H](C)C(=O)N[C@@H](CC(=O)O)C(=O)N[C@@H](CC(=O)O)C(=O)O)[C@@H](C)O)C(C)C [UL14-2]	water
CSCC[C@H](NC(=O)[C@H](Cc1ccccc1)NC(=O)[C@H](C)NC(=O)CNC(=O)[C@@H](NC(=O)[C@H](Cc1ccccc1)NC(=O)[C@H](CCCNC(=N)N)NC(=O)[C@@H]1CCCN1C(=O)[C@H](CC(=O)O)NC(=O)[C@H](CCC(N)=O)NC(=O)[C@@H](NC(=O)[C@H](CO)NC(=O)[C@@H](NC(=O)CNC(=O)[C@@H](N)CCC(=O)O)C(C)C)[C@@H](C)O)C(C)C)C(=O)N[C@@H](C)C(=O)N[C@@H](C)C(=O)N[C@@H](CCCCN)C(=O)N[C@@H](C)C(=O)N[C@@H](C)C(=O)N[C@@H](Cc1c[nH]cn1)C(=O)N[C@@H](CC(C)C)C(=O)N[C@@H](CCC(=O)O)C(=O)N[C@@H](CC(C)C)C(=O)N[C@@H](CCC(=O)O)C(=O)N[C@@H](C)C(=O)N[C@@H](CCCNC(=N)N)C(=O)N[C@@H](CC(C)C)C(=O)N[C@@H](CCCCN)C(=O)N[C@@H](CO)C(=O)N[C@@H](CCCNC(=N)N)C(=O)N[C@@H](C)C(=O)N[C@@H](CCCNC(=N)N)C(=O)N[C@@H](CC(C)C)C(=O)N[C@@H](CCC(=O)O)C(=O)O [UL14-1]	water
AGLPSPVPYAPLGSPDPSSPRQRTYVLPRVGIHNA [US10-1]	water
LSGIAVRLCYIAVVAGVVLVALRYEQEIQRRLFDL [UL53-2]	DMSO
CC[C@H](C)[C@H](NC(=O)[C@H](CC(C)C)NC(=O)[C@H](CO)NC(=O)[C@@H](NC(=O)[C@@H](NC(=O)[C@H](Cc1ccc(O)cc1)NC(=O)[C@H](CCCCN)NC(=O)[C@@H](NC(=O)[C@H](Cc1ccc(O)cc1)NC(=O)[C@H](CCCNC(=N)N)NC(=O)[C@H](Cc1c[nH]cn1)NC(=O)[C@H](CCC(=O)O)NC(=O)[C@@H](NC(=O)[C@H](CC(C)C)NC(=O)[C@H](CCC(=O)O)NC(=O)[C@H](C)NC(=O)[C@@H](NC(=O)[C@@H](N)[C@@H](C)O)[C@@H](C)CC)C(C)C)C(C)C)C(C)C)[C@@H](C)CC)C(=O)N[C@@H](CO)C(=O)N1CCC[C@H]1C(=O)N[C@@H](CCCCN)C(=O)N[C@@H](CCC(=O)O)C(=O)N[C@@H](CCCNC(=N)N)C(=O)NCC(=O)N1CCC[C@H]1C(=O)N[C@@H](Cc1c[nH]c2ccccc12)C(=O)N[C@H](C(=O)N[C@@H](CC(C)C)C(=O)N[C@@H](CC(C)C)C(=O)N[C@@H](CCCCN)C(=O)N[C@@H](CCCNC(=N)N)C(=O)N[C@@H](CC(C)C)C(=O)N1CCC[C@H]1C(=O)N[C@H](C(=O)N[C@@H](Cc1ccc(O)cc1)C(=O)O)[C@@H](C)CC)[C@@H](C)O [UL41-2]	water
RTLAVRGDASLCQLLFGHPVDAVILRQATRRPRIT [UL16-2]	water
CC[C@H](C)[C@H](NC(=O)[C@H](C)NC(=O)[C@H](CCC(=O)O)NC(=O)[C@H](CCCNC(=N)N)NC(=O)[C@H](CC(=O)O)NC(=O)[C@H](Cc1ccc(O)cc1)NC(=O)[C@H](CO)NC(=O)[C@@H]1CCCN1C(=O)[C@H](Cc1ccc(O)cc1)NC(=O)[C@H](CCCNC(=N)N)NC(=O)[C@H](CCCNC(=N)N)NC(=O)[C@H](CCC(N)=O)NC(=O)[C@H](Cc1ccc(O)cc1)NC(=O)[C@H](CCCCN)NC(=O)[C@@H](NC(=O)[C@@H](NC(=O)[C@H](CC(C)C)NC(=O)[C@@H](NC(=O)[C@H](Cc1ccc(O)cc1)NC(=O)[C@H](CCSC)NC(=O)[C@@H](NC(=O)[C@H](CC(N)=O)NC(=O)[C@H](Cc1c[nH]c2ccccc12)NC(=O)[C@H](CC(C)C)NC(=O)[C@H](CC(=O)O)NC(=O)[C@@H](NC(=O)[C@H](C)NC(=O)[C@@H](NC(=O)[C@@H]1CCCN1C(=O)[C@@H](NC(=O)[C@H](Cc1ccccc1)NC(=O)[C@H](Cc1ccc(O)cc1)NC(=O)CN)[C@@H](C)O)[C@@H](C)CC)C(C)C)C(C)C)[C@@H](C)O)C(C)C)C(C)C)C(=O)N[C@H](C(=O)N[C@@H](CC(C)C)C(=O)O)[C@@H](C)O [UL41-3]	DMSO
CC[C@H](C)[C@H](NC(=O)[C@H](Cc1ccc(O)cc1)NC(=O)[C@H](C)NC(=O)[C@H](Cc1ccc(O)cc1)NC(=O)CNC(=O)[C@H](CC(C)C)NC(=O)[C@H](C)NC(=O)[C@H](CCCNC(=N)N)NC(=O)[C@H](CC(C)C)NC(=O)[C@@H](NC(=O)[C@H](CCCNC(=N)N)NC(=O)[C@@H](NC(=O)[C@H](CS)NC(=O)[C@H](Cc1ccccc1)NC(=O)[C@H](CC(C)C)NC(=O)[C@H](Cc1c[nH]cn1)NC(=O)[C@H](C)NC(=O)[C@H](CC(C)C)NC(=O)[C@H](CCCNC(=N)N)NC(=O)[C@H](CC(C)C)NC(=O)[C@H](C)NC(=O)[C@@H]1CCCN1C(=O)[C@H](CCCCN)NC(=O)[C@H](CO)NC(=O)[C@@H]1CCCN1C(=O)[C@H](C)NC(=O)CNC(=O)[C@H](CO)NC(=O)[C@@H]1CCCN1C(=O)[C@H](C)NC(=O)[C@H](C)N)[C@@H](C)CC)C(C)C)C(=O)N[C@@H](CC(N)=O)C(=O)N[C@@H](CO)C(=O)NCC(=O)N[C@@H](CCC(N)=O)C(=O)O [UL41-1]	water
CSCC[C@H](NC(=O)[C@H](CCCNC(=N)N)NC(=O)[C@H](Cc1c[nH]cn1)NC(=O)[C@@H](NC(=O)[C@H](CC(C)C)NC(=O)[C@H](CC(C)C)NC(=O)CNC(=O)[C@@H]1CCCN1C(=O)[C@H](CC(C)C)NC(=O)[C@H](CC(N)=O)NC(=O)[C@H](CCC(=O)O)NC(=O)[C@H](C)NC(=O)[C@H](CC(C)C)NC(=O)[C@H](CC(C)C)NC(=O)[C@H](C)NC(=O)[C@@H](NC(=O)[C@H](CCC(=O)O)NC(=O)[C@@H]1CCCN1C(=O)[C@@H](N)CC(C)C)[C@@H](C)O)C(C)C)C(=O)N[C@@H](C)C(=O)N[C@H](C(=O)N[C@@H](C)C(=O)N[C@@H](CC(C)C)C(=O)N1CCC[C@H]1C(=O)N[C@@H](CCC(=O)O)C(=O)N[C@H](C(=O)N1CCC[C@H]1C(=O)N[C@@H](CCC(=O)O)C(=O)N[C@@H](C)C(=O)N[C@@H](C)C(=O)N[C@@H](Cc1ccccc1)C(=O)N[C@@H](CCCNC(=N)N)C(=O)N[C@@H](CCC(=O)O)C(=O)N[C@@H](CCSC)C(=O)N[C@@H](CC(=O)O)C(=O)O)[C@@H](C)O)C(C)C [UL37-1]	DMSO
